From patent US20230248740A1, “Pharmaceutical Composition Comprising Compound Capable of Penetrating Blood-Brain Barrier as Effective Ingredient for Preventing or Treating Brain Cancer” (DAEGU-GYEONGBUK MEDICAL INNOVATION FOUNDATION, priority 2017, published 2023)
Each block holds one compound with its values, some of them ahead of it.

How the values were obtained:
[1] = biological target: T1, LRRK2 protein (Homo sapiens, UniProt Q5S007); assay: LRRK2 protein phosphorylation inhibitory activity, Western blotting, NCC01 cells; format: cell-based, human (brain-tumor-patient-derived cell line); conditions: after 1 day
T1 construct: endogenous in cells; host or cells: NCC01 (brain-tumor-patient-derived cell line)
Method: In order to evaluate drug efficacy in vitro, a Western blotting experiment was performed using brain-tumor-patient-derived cell line NCC01 cells.
(§1) Here, the group not treated with the compound of Example was used as a vehicle.
as §1
Here, the group not treated with the compound of Example was used as a vehicle. […]
More specifically, 7.5x10^5 to 1.0x10^6 cells were treated with the compound of Comparative Example at a concentration of 0.1 or 1.0 µM, and after 1 day, samples were collected and evaluated for LRRK2 protein phosphorylation inhibitory activity through Western blotting. Here, the group not treated with the compound of Example was used as a vehicle.

[2] = biological target: T1, LRRK2 protein; assay: LRRK2 protein phosphorylation inhibitory activity, Western blotting, 448T cells; format: cell-based, human (brain-tumor-patient-derived cell line); conditions: after 1 day
Method: An experiment was conducted in order to evaluate the in-vitro drug efficacy of the compound of Comparative Example, known as an LRRK2 protein inhibitor.

[3] = tested on: NCC01 cells; assay: Apoptosis induction activity, FACS, NCC01 cells; format: cell-based, human (brain-tumor-patient-derived cell line); conditions: 100 nM, after 1 day
Method: In order to evaluate whether apoptosis of brain tumor cells is induced by inhibiting LRRK2 protein phosphorylation, an experiment was conducted using FACS (fluorescence-activated cell sorting).
More specifically, 7.5x10^5 to 1.0x10^6 NCC01 cells were treated with the compound of each of Examples 11, 12 and 21 at a concentration of 100 nM, and after 1 day, samples were collected and subjected to FACS, thus assaying the apoptosis induction activity. The group not treated with the compound of Example was used as a control.

[4] = tested on: NESTIN protein; assay: Expression of NESTIN protein (cancer stem cell marker), Western blotting, NCC01 cells; format: cell-based, human (brain-tumor-patient-derived cell line); conditions: 50 to 2,000 nM, after 1 day
Method: More specifically, 1.0x10^6 NCC01 cells were treated with the compound of Example 12 at concentrations of 50, 100, 500, 1,000 and 2,000 nM. After 1 day, samples were collected and the expression of NESTIN protein, which is a cancer stem cell marker involved in the intracellular signaling pathway, was measured through Western blotting. Here, the group not treated with the compound of Example was used as a vehicle.

[5] = tested on: NCC01 cells; assay: Mitochondrial function, TMRE staining of activated mitochondria, NCC01 cells; format: cell-based, human (brain-tumor-patient-derived cell line); conditions: after 1 day
Method: Specifically, NCC01 cells were treated with the compound of Example 12 at 1 µM, and after 1 day, TMRE (tetramethylrhodamine ethylester) dye for staining activated mitochondria was added thereto to evaluate changes in mitochondrial function. Here, the group not treated with the compound of Example was used as a control.
Specifically, brain tumor stem cell line NCC01 cells were treated with the compound of Example 12 at a concentration of 0.1 or 1 µM, and after 1 day, the mitochondria were stained as described in Experimental Example 9 to assay changes in the function thereof. Here, the group not treated with the compound of Example was used as a vehicle.

[6] = tested on: TRAP1 (TNF receptor associated protein 1); assay: TRAP1 expression, Western blotting, brain tumor stem cell line NCC01; format: cell-based, human (brain-tumor-patient-derived cell line); conditions: NCC01 cells, 100 or 1,000 nM, after 1 day
Method: Specifically, brain tumor stem cell line NCC01 cells were added with the compound of Example 12 at a concentration of 100 or 1,000 nM, and after 1 day, changes in the expression of TRAP1 were measured through Western blotting. Here, the group not treated with the compound of Example was used as a vehicle.

[7] = tested on: NCC01 cells; assay: Growth inhibitory activity on brain tumor cells in animal model, NCC01 cells injected into the brain; format: in vivo, Balb/c-nude mouse; conditions: orally
Method: (§2) More specifically, 1.0x10^4 NCC01 cells, a brain-tumor-patient-derived cell line, were injected into the brain of a Balb/c-nude mouse model, and after 3 days, the compound of Example 12 was orally administered at a dose of 10 mg/kg or 60 mg/kg. After administration of the compound, the survival rate of the mice based on the survival period was determined, and the size of the tumors generated in the mice was measured using MRI. Here, the group not treated with the compound of Example was used as a vehicle.

[8] = tested on: U87MG cells; assay: Therapeutic effect on brain tumor upon co-administration with Avastin, U87MG orthotopic mouse model; format: in vivo, Balb/c-nude mice; conditions: Example 12 orally 30 mg/kg in combination with Avastin intraperitoneally 10 mg/kg, vs Avastin
Method: More specifically, orthotopic mouse models were manufactured using 5-week-old Balb/c-nude mice. U87MG cells (ATCC, USA), a brain tumor cell line, were injected 3.5 mm deep at a position 2.2 mm to the left of and 0.5 mm behind the bregma using a stereotaxic device. 3 days after injection of the cells, mice were divided into three groups of 5 mice per group (a control (vehicle), a group administered with Avastin, and a group administered with the compound of Example 12 and Avastin), and the drug was administered thereto. The compound of Example 12 was orally administered at a dose of 30 mg/kg and Avastin was injected intraperitoneally at a dose of 10 mg/kg.

[9] = tested on: 448T cells; assay: Growth inhibitory activity on brain tumor cells in animal model, 448T cells injected into the brain; format: in vivo, Balb/c-nude mouse; conditions: orally, 60 mg/kg
Method: as §2
Specifically, the experiment was conducted in the same manner under the same conditions as in Experimental Example 14, with the exception that 448T cells were used in lieu of NCC01 cells, and the compound of each of Examples 12, 20 and 21 was orally administered at a dose of 60 mg/kg.

[10] = biological target: T1, LRRK2 protein; assay: LRRK2 protein phosphorylation inhibitory activity, Western blotting, NCC01 cells; format: cell-based, human (brain-tumor-patient-derived cell line); conditions: for LRRK2 protein phosphorylation: after 1 day
[11] = tested on: NCC01 cells; assay: Sphere size under hypoxic conditions with shRNA against the LRRK2 gene, NCC01 cells; format: cell-based, human (brain-tumor-patient-derived cell line); conditions: NCC01 cells exposed to hypoxic conditions
Method: (§3) Specifically, NCC01 and 528NS cells were exposed to hypoxic conditions and treated with two kinds of shRNA against the LRRK2 gene, after which changes in the size of spheres were measured. Here, a control was shRNA (shNT) against luciferase.

[12] = tested on: 528NS cells; assay: Sphere size under hypoxic conditions with shRNA against the LRRK2 gene, 528NS cells; format: cell-based; conditions: 528NS cells exposed to hypoxic conditions
Method: as §3

[13] = 100 or 1,000 nM, compared to the vehicle

T1 sequence (Q5S007 whole entry): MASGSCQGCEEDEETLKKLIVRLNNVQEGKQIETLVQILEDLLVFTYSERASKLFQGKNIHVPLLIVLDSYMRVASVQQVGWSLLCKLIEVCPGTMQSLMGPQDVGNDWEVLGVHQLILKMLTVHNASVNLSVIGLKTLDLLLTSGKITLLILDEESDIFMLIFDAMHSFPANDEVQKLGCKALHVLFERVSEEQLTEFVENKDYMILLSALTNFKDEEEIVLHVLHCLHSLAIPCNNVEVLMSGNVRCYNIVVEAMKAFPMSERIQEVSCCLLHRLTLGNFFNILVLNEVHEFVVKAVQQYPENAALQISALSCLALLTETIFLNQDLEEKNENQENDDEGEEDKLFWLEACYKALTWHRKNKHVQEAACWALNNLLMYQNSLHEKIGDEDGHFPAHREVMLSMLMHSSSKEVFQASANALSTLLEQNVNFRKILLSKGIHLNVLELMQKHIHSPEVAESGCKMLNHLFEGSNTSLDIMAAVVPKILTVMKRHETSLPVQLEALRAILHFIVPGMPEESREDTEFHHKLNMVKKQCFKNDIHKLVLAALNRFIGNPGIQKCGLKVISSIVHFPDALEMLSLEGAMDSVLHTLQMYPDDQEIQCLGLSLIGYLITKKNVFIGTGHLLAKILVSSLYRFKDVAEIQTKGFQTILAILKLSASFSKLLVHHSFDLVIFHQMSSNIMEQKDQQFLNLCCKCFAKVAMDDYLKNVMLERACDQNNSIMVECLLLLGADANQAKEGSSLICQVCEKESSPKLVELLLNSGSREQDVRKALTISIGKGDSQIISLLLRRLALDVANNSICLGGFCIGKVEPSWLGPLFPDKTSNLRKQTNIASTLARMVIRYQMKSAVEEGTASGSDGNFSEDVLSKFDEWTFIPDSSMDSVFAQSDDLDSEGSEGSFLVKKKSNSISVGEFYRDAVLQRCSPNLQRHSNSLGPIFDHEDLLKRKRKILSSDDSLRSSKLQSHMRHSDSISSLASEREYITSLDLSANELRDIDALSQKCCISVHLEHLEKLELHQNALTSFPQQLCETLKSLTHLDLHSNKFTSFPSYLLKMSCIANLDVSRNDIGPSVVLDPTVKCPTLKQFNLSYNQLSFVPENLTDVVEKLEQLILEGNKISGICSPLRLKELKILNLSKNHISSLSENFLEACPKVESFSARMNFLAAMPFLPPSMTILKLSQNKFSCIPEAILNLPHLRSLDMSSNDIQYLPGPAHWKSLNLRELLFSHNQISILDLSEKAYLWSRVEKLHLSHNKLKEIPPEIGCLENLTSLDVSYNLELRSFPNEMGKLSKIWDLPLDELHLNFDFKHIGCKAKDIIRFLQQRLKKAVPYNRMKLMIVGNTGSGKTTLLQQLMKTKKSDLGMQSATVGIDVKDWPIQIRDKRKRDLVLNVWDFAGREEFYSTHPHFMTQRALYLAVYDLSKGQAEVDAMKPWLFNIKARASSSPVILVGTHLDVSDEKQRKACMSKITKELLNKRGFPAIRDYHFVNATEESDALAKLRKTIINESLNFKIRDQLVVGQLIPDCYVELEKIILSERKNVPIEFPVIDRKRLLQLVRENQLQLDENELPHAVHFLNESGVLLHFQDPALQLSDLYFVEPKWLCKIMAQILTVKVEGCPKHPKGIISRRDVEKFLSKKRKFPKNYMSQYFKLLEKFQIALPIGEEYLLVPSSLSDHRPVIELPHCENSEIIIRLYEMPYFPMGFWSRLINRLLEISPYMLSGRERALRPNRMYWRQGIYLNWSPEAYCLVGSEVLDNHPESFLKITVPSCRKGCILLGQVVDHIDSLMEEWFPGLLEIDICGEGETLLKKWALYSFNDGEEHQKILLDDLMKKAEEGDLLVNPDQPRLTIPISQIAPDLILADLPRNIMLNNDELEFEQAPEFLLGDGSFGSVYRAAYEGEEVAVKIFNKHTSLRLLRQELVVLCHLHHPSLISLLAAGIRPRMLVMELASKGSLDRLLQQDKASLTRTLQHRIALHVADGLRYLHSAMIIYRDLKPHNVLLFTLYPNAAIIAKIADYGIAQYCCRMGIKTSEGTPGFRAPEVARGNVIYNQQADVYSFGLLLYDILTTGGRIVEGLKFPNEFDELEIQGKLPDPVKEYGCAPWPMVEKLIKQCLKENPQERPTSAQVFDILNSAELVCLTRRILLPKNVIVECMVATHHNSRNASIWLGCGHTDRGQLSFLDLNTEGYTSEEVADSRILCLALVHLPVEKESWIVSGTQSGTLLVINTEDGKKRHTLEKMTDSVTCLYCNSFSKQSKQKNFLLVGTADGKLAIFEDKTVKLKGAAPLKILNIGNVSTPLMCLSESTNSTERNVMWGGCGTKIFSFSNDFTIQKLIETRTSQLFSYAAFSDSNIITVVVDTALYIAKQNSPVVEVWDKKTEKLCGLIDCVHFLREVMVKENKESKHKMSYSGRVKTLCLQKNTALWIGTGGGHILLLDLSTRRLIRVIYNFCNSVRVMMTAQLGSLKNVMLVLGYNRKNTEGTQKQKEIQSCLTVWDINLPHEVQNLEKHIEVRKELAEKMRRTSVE

Compound: CNc1nc(Nc2cn(C(C)(C)C#N)nc2C)ncc1C(F)(F)F [Comparative Example, 2-Methyl-2-[3-Methyl-4-[[4-(Methylamino)-5-(Trifluoromethyl)Pyrimidin-2-yl]Amino]Pyrazol-1-yl]Propanenitrile, reference compound]
LRRK2 protein phosphorylation ([1]; 0.1 or 1.0 µM): did not inhibit
LRRK2 protein phosphorylation ([2]; 0.1 or 1.0 µM, Examples stated by contrast ('unlike' = inhibited)): did not inhibit

Compound: CNc1nc(Nc2ccc(C(=O)N3CCOCC3)cc2OC)ncc1C(F)(F)F [Example 12, (3-Methoxy-4-(4-(Methylamino)-5-(Trifluoromethyl)Pyrimidin-2-Ylamino)Phenyl)(Morpholino)Methanone]
LRRK2 protein phosphorylation [1, 13]: significantly inhibited
LRRK2 protein phosphorylation [2, 13]: significantly inhibited
LRRK2 protein phosphorylation ([2]; concentration of 50 nM): inhibited most
expression of NESTIN protein [4]: reducing
fragmentation of nuclei in the cells ([5]; 1 µM): occurred
degree of color development of the TMRE dye ([5]; 1 µM, vs control): decreased
activity of the mitochondria present in the brain tumor stem cells ([5]; 0.1 or 1 µM, compared to the control): inhibited
expression of TRAP1 [6]: inhibited
apoptosis of NCC01 cells [3]: induced
apoptosis rate relative to the compounds of Examples 11 and 21 [3]: about 3 times
tumor at the position to which the NCC01 cells were injected (MRI) ([7]; 10 mg/kg or 60 mg/kg): no tumor was observed
average survival period of the mice ([7]; 10 mg/kg, vehicle 54 days): 71 days
survival of all the mice ([7]; 60 mg/kg, vehicle average 54 days): ≥ 100 days
therapeutic effect of Avastin on brain tumors (survival) [8]: further significantly increased
tumor at the position to which the 448T cells were injected [9]: no tumor was observed
extent of LRRK2 protein phosphorylation over time ([10]; NCC01 cells, 100 nM, starting 1 day after treatment, samples after 1, 4 and 8 days, reduction continued over time): drastically reduced
LRRK2 protein phosphorylation ([10]; NCC01 cells, 50, 100, 500, 1,000 and 2,000 nM, concentration-dependent): inhibited
LRRK2 protein phosphorylation ([10]; NCC01 cells, concentrations of 50 and 100 nM): mostly inhibited

Compound: C[C@@H]1CN(c2cc(-c3n[nH]c4ccc(OC5(C)CC5)cc34)ncn2)C[C@H](C)O1 [Example 20, (2S,6R)-2,6-Dimethyl-4-(6-(5-(1-Methylcyclopropoxy)-1H-Indazol-3-yl)Pyrimidin-4-yl)Morpholine]
tumor at the position to which the 448T cells were injected [9]: no tumor was observed

Compound: LRRK2 shRNA-1: shRNA against the LRRK2 gene, SEQ ID NO: 33 (CCGGCCACAAATTCAACGGAAAGAACTCGAGTTCTTTCCGTTGAATTTGTGGTTTTT)
sphere size [11]: suppressed
sphere size [12]: suppressed

Compound: LRRK2 shRNA-2: shRNA against the LRRK2 gene, SEQ ID NO: 34 (CCGGCCCAAATTGGTGGAACTCTTACTCGAGTAAGAGTTCCACCAATTTGGGTTTTT)
sphere size [11]: suppressed
sphere size [12]: suppressed

Now from value to compound, other results behind:

LRRK2 protein phosphorylation [1, 13]: significantly inhibited
phosphorylated LRRK2 protein ([1]; concentration of 100 nM): detected
LRRK2 protein phosphorylation [2, 13]: significantly inhibited
Compound: COc1cc(C(=O)N2CCC(N3CCN(C)CC3)CC2)ccc1Nc1ncc2c(n1)N(C)c1ccccc1C(=O)N2C [Example 10, 2-[(2-Methoxy-4-[[4-(4-Methylpiperazin-1-yl)Piperidin-1-yl]Carbonyl]Phenyl)Amino]-5,11-Dimethyl-5,11-Dihydro-6H-Pyrimido[4,5-b][1,4]Benzodiazepin-6-One]

LRRK2 protein phosphorylation [1, 13]: significantly inhibited
LRRK2 protein phosphorylation [2, 13]: significantly inhibited
Compound: CCNc1nc(Nc2cc(F)c(C(=O)N3CCOCC3)cc2OC)ncc1C(F)(F)F [Example 11, (4-(4-(Ethylamino)-5-(Trifluoromethyl)Pyrimidin-2-Ylamino)-2-Fluoro-5-Methoxyphenyl) (Morpholino)Methanone]
apoptosis of NCC01 cells [3]: induced

LRRK2 protein phosphorylation [1, 13]: significantly inhibited
LRRK2 protein phosphorylation [2, 13]: significantly inhibited
Compound: N#Cc1cccc(-c2c[nH]c3nccc(N4CCOCC4)c23)c1 [Example 21, 3-(4-Morpholino-1H-Pyrrolo[2,3-b]Pyridin-3-yl)Benzonitrile]
apoptosis of NCC01 cells [3]: induced
tumor at the position to which the 448T cells were injected [9]: no tumor was observed

LRRK2 protein phosphorylation [1, 13]: significantly inhibited
Compound: Cn1cc(-c2c[nH]c3ncnc(N4CCOCC4)c23)cc1C#N [Example 22, 1-Methyl-4-(4-Morpholino-7H-Pyrrolo[2,3-d]Pyrimidin-5-yl)-1H-Pyrrole-2-Carbonitrile]
